Source: ChEMBL document CHEMBL1201862, “PubChem BioAssay data set” (2004)
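Test compounds were applied to cells in 96-well plates for 48 hours at 5 doses. GI50 is the concentration that inhibits growth by half.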 The source made the active and inactive calls. Cut-off read from the data, not from the text of the source: active = GI50 up to about 1.1 µM and inactive = higher.

Experiments:
Assay in all cases: DTP human tumour cell line panel, 48 h
786-0 = tested on: 786-0
A549 = tested on: A549
ACHN = tested on: ACHN
BT-549 = tested on: BT-549
CAKI-1 = tested on: CAKI-1
CCRF-CEM = tested on: CCRF-CEM
COLO 205 = tested on: COLO 205
DU-145 = tested on: DU-145
EKVX = tested on: EKVX
HCC 2998 = tested on: HCC 2998
HCT-116 = tested on: HCT-116
HCT-15 = tested on: HCT-15
HL-60 = tested on: HL-60
HOP-62 = tested on: HOP-62
HT-29 = tested on: HT-29
Hs-578T = tested on: Hs-578T
IGROV-1 = tested on: IGROV-1
K562 = tested on: K562
KM12 = tested on: KM12
LOX IMVI = tested on: LOX IMVI
M14 = tested on: M14
MCF7 = tested on: MCF7
MDA-MB-231 = tested on: MDA-MB-231
MDA-N = tested on: MDA-N
MOLT-4 = tested on: MOLT-4
Malme-3M = tested on: Malme-3M
NCI-H226 = tested on: NCI-H226
NCI-H23 = tested on: NCI-H23
NCI-H460 = tested on: NCI-H460
NCI-H522 = tested on: NCI-H522
NCI/ADR-RES = tested on: NCI/ADR-RES
OVCAR-4 = tested on: OVCAR-4
OVCAR-5 = tested on: OVCAR-5
OVCAR-8 = tested on: OVCAR-8
PC-3 = tested on: PC-3
RPMI-8226 = tested on: RPMI-8226
RXF 393 = tested on: RXF 393
SF-268 = tested on: SF-268
SF-295 = tested on: SF-295
SF-539 = tested on: SF-539
SK-MEL-28 = tested on: SK-MEL-28
SK-MEL-2 = tested on: SK-MEL-2
SK-MEL-5 = tested on: SK-MEL-5
SK-OV-3 = tested on: SK-OV-3
SN12C = tested on: SN12C
SNB-19 = tested on: SNB-19
SNB-75 = tested on: SNB-75
SR = tested on: SR
SW-620 = tested on: SW-620
T47D = tested on: T47D
TK-10 = tested on: TK-10
U-251 = tested on: U-251
UACC-257 = tested on: UACC-257
UACC-62 = tested on: UACC-62
UO-31 = tested on: UO-31
HOP-92 = tested on: HOP-92
MDA-MB-435 = tested on: MDA-MB-435
OVCAR-3 = tested on: OVCAR-3

CC(C)OC(=O)C1(C(C)C)CCc2ccc(C(=O)CCC(=O)O)cc21 (centres undefined)
GI50 (786-0): > 100 µM (inactive) | GI50 (A549): > 100 µM (inactive) | GI50 (ACHN): > 100 µM (inactive) | GI50 (BT-549): > 100 µM (inactive) | GI50 (CAKI-1): > 100 µM (inactive) | GI50 (CCRF-CEM): > 100 µM (inactive) | GI50 (COLO 205): > 100 µM (inactive) | GI50 (DU-145): > 100 µM (inactive) | GI50 (EKVX): > 100 µM (inactive) | GI50 (HCC 2998): > 100 µM (inactive) | GI50 (HCT-116): > 100 µM (inactive) | GI50 (HCT-15): > 100 µM | GI50 (HL-60): > 100 µM (inactive) | GI50 (HOP-62): > 100 µM (inactive) | GI50 (HT-29): > 100 µM (inactive) | GI50 (Hs-578T): > 100 µM (inactive) | GI50 (IGROV-1): > 100 µM (inactive) | GI50 (K562): > 100 µM (inactive) | GI50 (KM12): > 100 µM (inactive) | GI50 (LOX IMVI): > 100 µM (inactive) | GI50 (M14): > 100 µM (inactive) | GI50 (MCF7): > 100 µM (inactive) | GI50 (MDA-MB-231): > 100 µM (inactive) | GI50 (MDA-N): > 100 µM (inactive) | GI50 (MOLT-4): > 100 µM (inactive) | GI50 (Malme-3M): > 100 µM (inactive) | GI50 (NCI-H226): > 100 µM (inactive) | GI50 (NCI-H23): > 100 µM (inactive) | GI50 (NCI-H460): > 100 µM (inactive) | GI50 (NCI-H522): > 100 µM (inactive) | GI50 (NCI/ADR-RES): > 100 µM (inactive) | GI50 (OVCAR-4): > 100 µM (inactive) | GI50 (OVCAR-5): > 100 µM (inactive) | GI50 (OVCAR-8): > 100 µM (inactive) | GI50 (PC-3): > 100 µM (inactive) | GI50 (RPMI-8226): > 100 µM (inactive) | GI50 (RXF 393): > 100 µM (inactive) | GI50 (SF-268): > 100 µM (inactive) | GI50 (SF-295): > 100 µM (inactive) | GI50 (SF-539): > 100 µM (inactive) | GI50 (SK-MEL-28): > 100 µM (inactive) | GI50 (SK-MEL-2): > 100 µM (inactive) | GI50 (SK-MEL-5): > 100 µM (inactive) | GI50 (SK-OV-3): > 100 µM (inactive) | GI50 (SN12C): > 100 µM (inactive) | GI50 (SNB-19): > 100 µM (inactive) | GI50 (SNB-75): > 100 µM (inactive) | GI50 (SR): > 100 µM (inactive) | GI50 (SW-620): > 100 µM (inactive) | GI50 (T47D): > 100 µM (inactive) | GI50 (TK-10): > 100 µM (inactive) | GI50 (U-251): > 100 µM (inactive) | GI50 (UACC-257): > 100 µM (inactive) | GI50 (UACC-62): > 100 µM (inactive) | GI50 (UO-31): > 100 µM (inactive)

c1ccc(/N=C(/Nc2ccccc2)N2CCCC2)cc1
GI50 (786-0): > 100 µM (inactive) | GI50 (A549): > 100 µM (inactive) | GI50 (ACHN): > 100 µM (inactive) | GI50 (BT-549): > 100 µM (inactive) | GI50 (CAKI-1): > 100 µM (inactive) | GI50 (CCRF-CEM): > 100 µM (inactive) | GI50 (COLO 205): > 100 µM (inactive) | GI50 (DU-145): > 100 µM (inactive) | GI50 (EKVX): > 100 µM (inactive) | GI50 (HCT-116): > 100 µM (inactive) | GI50 (HCT-15): > 100 µM | GI50 (HL-60): > 100 µM (inactive) | GI50 (HOP-62): > 100 µM (inactive) | GI50 (HOP-92): > 100 µM (inactive) | GI50 (HT-29): > 100 µM (inactive) | GI50 (Hs-578T): > 100 µM (inactive) | GI50 (IGROV-1): > 100 µM (inactive) | GI50 (K562): > 100 µM (inactive) | GI50 (KM12): > 100 µM (inactive) | GI50 (LOX IMVI): > 100 µM (inactive) | GI50 (M14): > 100 µM (inactive) | GI50 (MCF7): > 100 µM (inactive) | GI50 (MDA-MB-435): > 100 µM (inactive) | GI50 (MDA-N): > 100 µM (inactive) | GI50 (MOLT-4): > 100 µM (inactive) | GI50 (Malme-3M): > 100 µM (inactive) | GI50 (NCI-H226): > 100 µM (inactive) | GI50 (NCI-H23): > 100 µM (inactive) | GI50 (NCI-H460): > 100 µM (inactive) | GI50 (NCI-H522): > 100 µM (inactive) | GI50 (NCI/ADR-RES): > 100 µM (inactive) | GI50 (OVCAR-3): > 100 µM (inactive) | GI50 (OVCAR-4): > 100 µM (inactive) | GI50 (OVCAR-5): > 100 µM (inactive) | GI50 (OVCAR-8): > 100 µM (inactive) | GI50 (PC-3): 79.1 µM (inactive) | GI50 (RPMI-8226): > 100 µM (inactive) | GI50 (SF-268): > 100 µM (inactive) | GI50 (SF-295): > 100 µM (inactive) | GI50 (SK-MEL-28): > 100 µM (inactive) | GI50 (SK-MEL-2): > 100 µM (inactive) | GI50 (SK-MEL-5): > 100 µM (inactive) | GI50 (SK-OV-3): > 100 µM (inactive) | GI50 (SN12C): > 100 µM (inactive) | GI50 (SNB-19): > 100 µM (inactive) | GI50 (SNB-75): > 100 µM (inactive) | GI50 (SR): > 100 µM (inactive) | GI50 (SW-620): > 100 µM (inactive) | GI50 (T47D): > 100 µM (inactive) | GI50 (TK-10): > 100 µM (inactive) | GI50 (U-251): > 100 µM (inactive) | GI50 (UACC-257): > 100 µM (inactive) | GI50 (UACC-62): > 100 µM (inactive) | GI50 (UO-31): > 100 µM (inactive)
